Measured values taken from ChEMBL document CHEMBL5653631, “A Potent and Selective ULK1 Inhibitor Suppresses Autophagy and Sensitizes Cancer Cells to Nutrient Stress” (iScience, 2018).
Blank lines part the entries; values can stand above or below the compound they belong to.

How the values were obtained:
[1] = biological target: Focal adhesion kinase 1 (Homo sapiens) (UniProt Q05397); assay: Inhibition of human recombinant FAK at 500 nM in presence of ATP by radiometric assay relative to control
Chain of Focal adhesion kinase 1 (Homo sapiens) (Q05397 2-1052 limits assumed): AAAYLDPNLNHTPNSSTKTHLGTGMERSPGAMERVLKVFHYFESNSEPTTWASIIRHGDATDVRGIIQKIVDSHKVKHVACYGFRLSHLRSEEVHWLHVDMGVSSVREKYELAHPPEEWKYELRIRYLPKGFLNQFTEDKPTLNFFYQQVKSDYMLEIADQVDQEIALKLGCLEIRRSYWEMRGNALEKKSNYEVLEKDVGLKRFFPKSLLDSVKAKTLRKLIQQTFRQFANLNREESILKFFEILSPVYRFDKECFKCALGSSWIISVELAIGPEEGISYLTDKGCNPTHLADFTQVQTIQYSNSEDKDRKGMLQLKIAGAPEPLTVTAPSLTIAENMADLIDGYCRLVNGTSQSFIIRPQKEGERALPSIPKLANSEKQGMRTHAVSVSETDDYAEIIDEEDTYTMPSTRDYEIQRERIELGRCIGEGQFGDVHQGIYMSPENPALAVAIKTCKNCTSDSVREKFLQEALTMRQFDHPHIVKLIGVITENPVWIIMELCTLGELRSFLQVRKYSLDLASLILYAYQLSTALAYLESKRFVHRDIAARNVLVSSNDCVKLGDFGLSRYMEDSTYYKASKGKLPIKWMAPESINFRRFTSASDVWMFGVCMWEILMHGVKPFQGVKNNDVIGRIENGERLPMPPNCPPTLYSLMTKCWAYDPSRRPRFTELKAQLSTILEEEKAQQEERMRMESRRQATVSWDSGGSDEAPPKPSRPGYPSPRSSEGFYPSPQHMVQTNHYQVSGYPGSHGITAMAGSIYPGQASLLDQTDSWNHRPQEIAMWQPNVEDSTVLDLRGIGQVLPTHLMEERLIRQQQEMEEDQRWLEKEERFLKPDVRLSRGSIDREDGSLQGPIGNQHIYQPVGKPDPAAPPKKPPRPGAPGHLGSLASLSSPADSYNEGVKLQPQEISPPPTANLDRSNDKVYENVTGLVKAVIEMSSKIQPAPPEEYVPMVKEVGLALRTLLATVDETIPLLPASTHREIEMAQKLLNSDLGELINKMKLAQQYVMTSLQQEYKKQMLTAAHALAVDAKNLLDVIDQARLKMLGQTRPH

[2] = biological target: Tyrosine-protein kinase Fgr (Homo sapiens) (UniProt P09769); assay: Inhibition of human recombinant FGR at 500 nM related to control ULK1
Chain of Tyrosine-protein kinase Fgr (Homo sapiens) (P09769 2-529 limits assumed): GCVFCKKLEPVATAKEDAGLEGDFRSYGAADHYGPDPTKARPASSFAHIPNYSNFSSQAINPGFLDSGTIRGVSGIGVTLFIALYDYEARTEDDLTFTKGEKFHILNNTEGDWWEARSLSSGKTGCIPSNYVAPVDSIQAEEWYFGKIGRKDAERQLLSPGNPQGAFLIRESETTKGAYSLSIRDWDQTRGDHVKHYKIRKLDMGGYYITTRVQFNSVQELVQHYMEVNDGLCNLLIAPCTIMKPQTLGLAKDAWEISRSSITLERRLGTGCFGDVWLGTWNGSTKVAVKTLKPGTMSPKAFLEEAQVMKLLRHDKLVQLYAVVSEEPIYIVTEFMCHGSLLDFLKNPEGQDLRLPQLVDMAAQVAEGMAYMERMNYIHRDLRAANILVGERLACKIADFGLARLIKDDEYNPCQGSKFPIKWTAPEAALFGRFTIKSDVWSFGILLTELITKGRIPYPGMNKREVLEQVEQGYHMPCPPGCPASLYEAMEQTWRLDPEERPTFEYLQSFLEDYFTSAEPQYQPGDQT

[3] = biological target: Epithelial discoidin domain-containing receptor 1 (Homo sapiens) (UniProt Q08345); assay: Inhibition of human recombinant DDR1 at 500 nM related to control ULK1
Chain of Epithelial discoidin domain-containing receptor 1 (Homo sapiens) (Q08345 whole entry, the tested form may be a part): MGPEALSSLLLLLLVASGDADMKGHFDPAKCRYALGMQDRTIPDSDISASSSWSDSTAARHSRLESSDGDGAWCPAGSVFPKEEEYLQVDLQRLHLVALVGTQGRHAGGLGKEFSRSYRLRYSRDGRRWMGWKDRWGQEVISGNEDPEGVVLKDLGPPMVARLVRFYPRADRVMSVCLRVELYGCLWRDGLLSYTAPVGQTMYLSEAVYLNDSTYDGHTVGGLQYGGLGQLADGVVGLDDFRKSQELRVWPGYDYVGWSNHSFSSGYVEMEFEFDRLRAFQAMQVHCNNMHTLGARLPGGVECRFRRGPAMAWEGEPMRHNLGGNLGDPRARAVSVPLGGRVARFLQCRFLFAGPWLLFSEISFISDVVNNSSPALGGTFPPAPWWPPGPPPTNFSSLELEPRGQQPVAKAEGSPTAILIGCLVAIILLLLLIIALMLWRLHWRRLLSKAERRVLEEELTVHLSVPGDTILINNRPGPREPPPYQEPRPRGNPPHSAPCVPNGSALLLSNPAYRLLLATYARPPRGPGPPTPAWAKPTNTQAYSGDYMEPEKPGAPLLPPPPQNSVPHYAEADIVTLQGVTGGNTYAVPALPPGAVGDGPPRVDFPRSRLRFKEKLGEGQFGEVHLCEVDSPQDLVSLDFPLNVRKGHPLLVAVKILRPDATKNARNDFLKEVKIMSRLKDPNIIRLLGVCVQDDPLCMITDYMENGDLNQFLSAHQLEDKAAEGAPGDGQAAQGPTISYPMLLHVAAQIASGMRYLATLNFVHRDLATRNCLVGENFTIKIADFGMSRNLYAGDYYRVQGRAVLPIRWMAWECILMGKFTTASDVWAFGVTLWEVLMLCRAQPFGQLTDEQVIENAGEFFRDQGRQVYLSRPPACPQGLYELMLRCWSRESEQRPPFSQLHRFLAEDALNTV

[4] = biological target: T1, Serine/threonine-protein kinase TAO1 (Homo sapiens) (UniProt Q7L7X3); assay: Inhibition of human recombinant TAO1 at 15 nM related to control ULK1
T1 sequence (whole entry): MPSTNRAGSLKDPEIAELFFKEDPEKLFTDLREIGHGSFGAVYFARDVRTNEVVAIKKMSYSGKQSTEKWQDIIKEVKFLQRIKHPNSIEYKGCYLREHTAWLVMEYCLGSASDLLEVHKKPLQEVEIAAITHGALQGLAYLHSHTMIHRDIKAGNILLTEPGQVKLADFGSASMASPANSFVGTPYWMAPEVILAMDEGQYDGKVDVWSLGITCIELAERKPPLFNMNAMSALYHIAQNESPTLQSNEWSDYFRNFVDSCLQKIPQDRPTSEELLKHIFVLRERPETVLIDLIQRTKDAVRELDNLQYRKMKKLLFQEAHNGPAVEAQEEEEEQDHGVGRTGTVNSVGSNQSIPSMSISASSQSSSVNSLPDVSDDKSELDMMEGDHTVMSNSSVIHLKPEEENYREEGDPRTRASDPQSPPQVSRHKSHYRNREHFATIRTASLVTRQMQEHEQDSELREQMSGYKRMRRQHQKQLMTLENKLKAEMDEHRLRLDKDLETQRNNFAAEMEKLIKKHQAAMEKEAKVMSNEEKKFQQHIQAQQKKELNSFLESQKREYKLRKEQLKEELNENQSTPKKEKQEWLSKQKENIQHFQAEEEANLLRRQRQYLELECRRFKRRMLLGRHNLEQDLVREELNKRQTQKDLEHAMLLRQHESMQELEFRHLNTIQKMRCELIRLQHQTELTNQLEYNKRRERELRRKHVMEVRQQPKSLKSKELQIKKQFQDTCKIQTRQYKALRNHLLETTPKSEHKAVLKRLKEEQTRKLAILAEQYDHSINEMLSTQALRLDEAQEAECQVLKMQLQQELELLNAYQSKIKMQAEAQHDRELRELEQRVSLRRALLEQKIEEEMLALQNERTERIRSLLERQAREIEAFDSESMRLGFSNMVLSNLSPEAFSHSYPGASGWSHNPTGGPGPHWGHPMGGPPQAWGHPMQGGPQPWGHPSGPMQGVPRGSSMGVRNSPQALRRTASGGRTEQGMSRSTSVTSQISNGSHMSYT

[5] = biological target: T2, Bone morphogenetic protein receptor type-2 (Homo sapiens) (UniProt Q13873); assay: Inhibition of human recombinant BMPR2 at 15 nM related to control ULK1
T2 sequence (whole entry): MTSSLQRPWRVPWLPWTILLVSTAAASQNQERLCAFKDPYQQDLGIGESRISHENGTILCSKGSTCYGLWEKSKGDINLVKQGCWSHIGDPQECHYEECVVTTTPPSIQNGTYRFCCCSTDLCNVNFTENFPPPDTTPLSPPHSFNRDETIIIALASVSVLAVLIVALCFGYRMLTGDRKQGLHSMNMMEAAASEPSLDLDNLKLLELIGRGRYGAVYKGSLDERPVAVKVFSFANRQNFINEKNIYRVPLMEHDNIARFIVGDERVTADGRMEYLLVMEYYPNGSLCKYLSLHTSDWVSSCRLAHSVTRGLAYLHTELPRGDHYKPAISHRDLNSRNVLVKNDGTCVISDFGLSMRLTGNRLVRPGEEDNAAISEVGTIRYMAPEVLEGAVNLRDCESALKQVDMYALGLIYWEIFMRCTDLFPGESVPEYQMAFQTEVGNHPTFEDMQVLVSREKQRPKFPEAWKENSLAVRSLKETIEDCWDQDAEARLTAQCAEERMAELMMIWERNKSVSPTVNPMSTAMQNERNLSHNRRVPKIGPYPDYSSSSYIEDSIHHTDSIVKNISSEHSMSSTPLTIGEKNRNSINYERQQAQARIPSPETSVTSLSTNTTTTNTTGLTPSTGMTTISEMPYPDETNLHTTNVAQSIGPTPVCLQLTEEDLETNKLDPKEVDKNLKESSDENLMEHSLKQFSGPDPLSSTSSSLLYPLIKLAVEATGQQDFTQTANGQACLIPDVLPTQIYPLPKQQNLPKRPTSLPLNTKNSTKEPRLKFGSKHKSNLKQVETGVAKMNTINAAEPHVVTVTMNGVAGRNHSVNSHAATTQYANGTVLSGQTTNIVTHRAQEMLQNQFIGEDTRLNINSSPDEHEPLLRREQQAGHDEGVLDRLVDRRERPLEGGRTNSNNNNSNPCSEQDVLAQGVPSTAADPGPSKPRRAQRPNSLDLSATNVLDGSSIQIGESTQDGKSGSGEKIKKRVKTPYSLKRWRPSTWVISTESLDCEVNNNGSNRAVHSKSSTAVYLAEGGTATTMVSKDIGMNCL

[6] = biological target: Cyclin-dependent kinase 18 (Homo sapiens) (UniProt Q07002); assay: Inhibition of human recombinant PCTAIRE3 at 15 nM in presence of ATP by radiometric assay relative to control
Chain of Cyclin-dependent kinase 18 (Homo sapiens) (Q07002 whole entry): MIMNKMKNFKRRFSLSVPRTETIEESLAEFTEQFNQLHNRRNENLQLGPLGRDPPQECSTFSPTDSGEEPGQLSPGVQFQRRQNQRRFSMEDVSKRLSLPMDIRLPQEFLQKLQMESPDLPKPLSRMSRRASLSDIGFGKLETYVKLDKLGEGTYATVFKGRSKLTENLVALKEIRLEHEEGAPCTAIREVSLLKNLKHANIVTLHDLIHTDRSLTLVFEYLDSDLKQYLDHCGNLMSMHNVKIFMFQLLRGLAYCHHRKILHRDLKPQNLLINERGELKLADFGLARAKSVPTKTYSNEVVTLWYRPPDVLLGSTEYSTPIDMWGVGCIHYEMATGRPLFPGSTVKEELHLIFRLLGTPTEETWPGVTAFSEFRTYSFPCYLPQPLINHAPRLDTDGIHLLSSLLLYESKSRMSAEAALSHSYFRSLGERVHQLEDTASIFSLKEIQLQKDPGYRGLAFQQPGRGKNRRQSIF

[7] = biological target: T3, Mitogen-activated protein kinase kinase kinase 3 (Homo sapiens) (UniProt Q99759); assay: Inhibition of human recombinant MAP3K3 at 40 nM related to control ULK1
T3 sequence (whole entry): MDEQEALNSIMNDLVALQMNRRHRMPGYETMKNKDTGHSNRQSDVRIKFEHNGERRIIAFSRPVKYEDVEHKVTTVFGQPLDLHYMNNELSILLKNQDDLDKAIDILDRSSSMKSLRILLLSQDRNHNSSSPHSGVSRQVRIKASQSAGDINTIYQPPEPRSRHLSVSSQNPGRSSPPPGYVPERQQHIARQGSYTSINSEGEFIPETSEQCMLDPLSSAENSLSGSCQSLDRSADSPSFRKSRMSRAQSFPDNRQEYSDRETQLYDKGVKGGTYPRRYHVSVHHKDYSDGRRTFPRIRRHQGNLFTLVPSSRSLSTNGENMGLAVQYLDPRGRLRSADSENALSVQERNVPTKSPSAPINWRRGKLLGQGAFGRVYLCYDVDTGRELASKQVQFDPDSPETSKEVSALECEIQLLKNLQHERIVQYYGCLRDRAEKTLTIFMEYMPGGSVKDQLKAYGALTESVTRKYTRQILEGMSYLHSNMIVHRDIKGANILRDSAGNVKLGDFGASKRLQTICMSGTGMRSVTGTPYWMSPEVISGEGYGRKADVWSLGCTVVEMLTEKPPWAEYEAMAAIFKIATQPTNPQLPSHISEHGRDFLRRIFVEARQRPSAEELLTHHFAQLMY

- inhibition [1]: 71%
- fold change (FC) [2]: 0.11
- fold change (FC) [3]: 0.64
Structure (SMILES): CNC(=O)c1ccccc1Oc1nc(Nc2cc(OC)c(OC)c(OC)c2)ncc1Br

- fold change (FC) [4]: 0
- fold change (FC) [5]: 0.06
- inhibition [6]: 67%
Structure (SMILES): CC(C)[C@H](NC(=O)c1cc(-c2cnn3cc(-c4ccc(OCCN5CCCCC5)cc4)cnc23)cs1)C(F)(F)F

- fold change (FC) [7]: 0
Structure (SMILES): O=C(N[C@@H](C1CC1)C(F)(F)F)c1cc(-c2cnn3cc(-c4ccc(F)cc4)cnc23)cs1
